{"source": "patent US8895544B2", "about": "“Indazoles” (Pfizer Limited, priority 2011, dated 2014)", "key": {"JAK3 enzyme": {"biological_target": "JAK3 enzyme (Homo sapiens (Human), UniProt P52333)", "sequence (P52333 whole entry)": "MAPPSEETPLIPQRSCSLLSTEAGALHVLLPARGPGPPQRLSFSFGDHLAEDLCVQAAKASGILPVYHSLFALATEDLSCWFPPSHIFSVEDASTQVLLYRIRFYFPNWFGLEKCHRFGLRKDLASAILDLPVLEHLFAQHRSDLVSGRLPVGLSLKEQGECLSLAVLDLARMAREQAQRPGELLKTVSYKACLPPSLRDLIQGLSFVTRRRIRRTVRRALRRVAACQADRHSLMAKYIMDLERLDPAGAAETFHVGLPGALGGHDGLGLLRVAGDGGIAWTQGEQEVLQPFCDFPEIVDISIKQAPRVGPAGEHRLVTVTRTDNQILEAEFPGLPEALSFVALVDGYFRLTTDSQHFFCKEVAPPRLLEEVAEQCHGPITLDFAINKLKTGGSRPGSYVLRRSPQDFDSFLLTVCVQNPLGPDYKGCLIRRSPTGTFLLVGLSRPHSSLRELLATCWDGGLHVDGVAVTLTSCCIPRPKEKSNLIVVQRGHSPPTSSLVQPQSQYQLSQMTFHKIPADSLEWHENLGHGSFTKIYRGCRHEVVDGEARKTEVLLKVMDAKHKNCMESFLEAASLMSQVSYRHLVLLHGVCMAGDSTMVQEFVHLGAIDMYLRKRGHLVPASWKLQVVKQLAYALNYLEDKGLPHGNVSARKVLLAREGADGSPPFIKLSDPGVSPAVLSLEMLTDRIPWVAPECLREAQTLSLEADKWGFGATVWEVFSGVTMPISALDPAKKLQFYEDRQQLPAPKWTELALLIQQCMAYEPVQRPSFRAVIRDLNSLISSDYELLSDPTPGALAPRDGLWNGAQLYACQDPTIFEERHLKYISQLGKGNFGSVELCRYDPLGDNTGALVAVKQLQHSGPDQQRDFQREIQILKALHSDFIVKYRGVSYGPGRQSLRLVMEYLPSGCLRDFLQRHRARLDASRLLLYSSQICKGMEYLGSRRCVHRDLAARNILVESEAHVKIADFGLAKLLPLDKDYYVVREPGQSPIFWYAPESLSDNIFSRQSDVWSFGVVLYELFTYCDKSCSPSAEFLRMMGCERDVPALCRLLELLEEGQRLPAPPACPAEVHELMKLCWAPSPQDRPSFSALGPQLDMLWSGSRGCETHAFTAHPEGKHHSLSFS", "assay": "JAK3 isolated enzyme high ATP Caliper endpoint assay", "format": "biochemical", "conditions": "400 μM ATP, read-out: JAK-3 IC50", "procedure": "JAK3 Isolated Enzyme High ATP Caliper Endpoint Assay\n4 mM stock solutions of test compounds are prepared and serially diluted in 100% DMSO. […] Greiner 384 well plates are prepared containing 400 nl of serially diluted compound, standard and HPE/ZPE. Final top assay concentration is 80 μM as the assay dilution factor is fifty.\nJAK3 enzyme stock is diluted to 2 nM in assay buffer (10 mM HEPES free acid pH 7.5, 10 mM HEPES free base pH 7.5, 10 mM MgCL2, 0.0005% Tween-20, 0.01% BSA) containing 2 mM DTT (all supplied by Sigma). ATP is made up at 10 mM stock in sterile water and diluted to 800 μM in assay buffer. Peptide (American peptide company) is made up at 30 mM in 100% DMSO and diluted to 3 μM in assay buffer.\nAssays are performed in Greiner polypropylene 384 well plates. Following compound preparation within the plate 10 μl of enzyme in assay buffer containing DTT is added using a Multidrop Micro. Final assay concentration of enzyme is 1 nM. Compound and enzyme are pre-incubated for 60 minutes at room temperature using low evaporation lids before addition of 10 μl ATP/peptide mixture in assay buffer using a Multidrop Micro. […] Plates are foil sealed and incubated for a further 60 minutes at room temperature. Stop solution is added to the plates (20 μl/well) using a Multidrop Micro and plates are loaded onto the Caliper EZReader II. Data is generated by the shift in mobility of non-phosphorylated peptide substrates and phosphorylated products by electrophoresis within a chip and detected via LED induced fluorescence. Data is analysed using LabChip EZReader software which calculates the relative heights of the substrate and product peaks and reports product/product plus substrate peak ratio. Test compound data are subsequently expressed as percentage inhibition defined by HPE and ZPE values for each plate. Percentage inhibition in the presence of test compound is plotted against compound concentration on a log scale to determine an IC50 from the resultant sigmoid curve."}, "JAK2": {"biological_target": "JAK2 (Homo sapiens (Human), UniProt O60674)", "sequence (O60674 whole entry)": "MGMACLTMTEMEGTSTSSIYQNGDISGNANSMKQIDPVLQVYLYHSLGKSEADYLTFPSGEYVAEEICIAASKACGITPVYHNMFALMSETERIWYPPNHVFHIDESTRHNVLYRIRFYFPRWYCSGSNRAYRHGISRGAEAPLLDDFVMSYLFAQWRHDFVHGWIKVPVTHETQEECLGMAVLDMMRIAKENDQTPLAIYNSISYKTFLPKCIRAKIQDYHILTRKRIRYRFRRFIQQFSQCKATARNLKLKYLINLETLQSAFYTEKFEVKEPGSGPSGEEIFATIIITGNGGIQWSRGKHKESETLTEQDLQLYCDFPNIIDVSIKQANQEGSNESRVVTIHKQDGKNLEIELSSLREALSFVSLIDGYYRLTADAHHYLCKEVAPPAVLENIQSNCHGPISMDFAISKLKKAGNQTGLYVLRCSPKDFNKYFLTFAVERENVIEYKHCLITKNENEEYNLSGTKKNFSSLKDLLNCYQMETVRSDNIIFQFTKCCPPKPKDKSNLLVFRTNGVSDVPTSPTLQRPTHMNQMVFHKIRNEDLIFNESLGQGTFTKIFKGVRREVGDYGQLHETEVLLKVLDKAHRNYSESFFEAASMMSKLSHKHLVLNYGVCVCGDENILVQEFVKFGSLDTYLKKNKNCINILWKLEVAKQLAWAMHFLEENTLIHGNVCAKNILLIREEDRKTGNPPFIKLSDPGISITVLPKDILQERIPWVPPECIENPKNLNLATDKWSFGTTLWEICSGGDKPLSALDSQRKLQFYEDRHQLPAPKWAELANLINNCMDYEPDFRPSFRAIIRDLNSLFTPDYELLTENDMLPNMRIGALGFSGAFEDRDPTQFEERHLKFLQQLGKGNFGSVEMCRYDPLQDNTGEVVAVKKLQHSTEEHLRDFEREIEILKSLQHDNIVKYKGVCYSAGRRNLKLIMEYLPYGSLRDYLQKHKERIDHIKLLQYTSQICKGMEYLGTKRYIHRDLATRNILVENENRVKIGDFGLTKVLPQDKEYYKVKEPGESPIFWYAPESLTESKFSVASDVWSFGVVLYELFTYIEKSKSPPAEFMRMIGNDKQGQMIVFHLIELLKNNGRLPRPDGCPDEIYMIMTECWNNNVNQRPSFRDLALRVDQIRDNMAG", "assay": "JAK2 PathHunter assay (prolactin response, U2OS cell line)", "format": "cell-based", "conditions": "PathHunter U2OS cell line expressing JAK2, prolactin challenge; read-out: JAK-2 IC50", "experimental": "JAK1 and JAK2 PathHunter Assay\n4 mM stock solutions of test compounds are prepared and serially diluted in 100% DMSO. A standard curve using PF-00956980 at a top concentration of 10 mM is also prepared. High percentage effect (HPE) is defined by 10 mM PF-00956980 and 0% effect (ZPE) is defined by 100% DMSO. Plates containing 1 μl of serially diluted compound, standard and HPE/ZPE are diluted by addition of 65 μl compound diluent (PBS minus Ca^2+, minus Mg^2+ with 0.05% pluronic F127) using a Multidrop Combi. This dilutes test compounds to a top concentration of 60 μM. Final top assay concentration is 10 μM as the assay dilution factor is six. Final DMSO concentration is 0.25%.\nProlactin (Peprotech) is used for the agonist challenge. Prolactin is prepared at 40 μM in compound diluent to generate a stock solution and further diluted to 6 μM in compound diluent. A standard curve is prepared in compound diluent. Prolactin is also diluted to a concentration of 15 nM (2.5 nM fac). Antagonism of the JAK1 or JAK2 prolactin response is measured in the presence of prolactin at an approximate […], concentration for JAK1 and approximately EC100 for JAK2. […]\nAssays are performed in Greiner white 384 well plates. […] Luminescence signal is read using an Envision. Test compound data are expressed as percentage inhibition defined by HPE and ZPE values for each plate. […]"}, "[1]": {"tested_on": "IFNγ production in human isolated PBMC", "assay": "hrIL2/haCD3 stimulated IFNγ production in human isolated PBMC", "format": "cell-based", "conditions": "IL-2/aCD3 stimulated IFNγ, 18 h", "experimental": "Functional Assessment of JAK Inhibitory Potency Using hrIL-2 and haCD3 stimuated IFNγ Production in Human Isolated PBMC.\n(§1) Isolation of human Peripheral Blood Mononuclear Cells (PBMC)\nPeripheral venous blood from healthy volunteers of either sex was collected into 50 ml centrifuge tubes (Corning) containing 1 ml of 5 mg/ml heparin (Sigma H3400) in distilled water. The heparininsed blood was diluted using an equal volume of sterile Dulbeccos phosphate buffered saline (PBS: Invitrogen 14190) before decanting into 50 ml Leucosep tubes (Sigma A0561). […]\n180 μl of PBMC cell suspension was added to each well of a sterile 96 well, flat bottomed plate (Corning-Costar 3598). […] 100 μl supernatent was collected, diluted 1:4 and IFNγ content determined using a commercially available IFNγ ELISA kit (Invitrogen CHC1233) as per the manufacturer's instructions. Absorbances were measured using a Spectramax 190/250 plate reader (Molecular Devices). The IFNγ concentration of test wells was expressed as % of the IFNγ concentration produced in wells exposed to IL-2/aCD3 in the absence of test compound, and IC50 values determined using a 4 parameter curve fit."}, "[2]": {"tested_on": "pYSTAT5 in PBMC lymphocytes", "assay": "hrIL2/haCD3 stimulated pYSTAT5 in PBMC lymphocytes", "format": "cell-based", "conditions": "rhIL2 stimulated pYSTAT5, human PBMC lymphocytes", "experimental": "as §1\nPeripheral venous blood from healthy volunteers of either sex was collected into 50 ml centrifuge tubes (Corning) containing 1 ml of 5 mg/ml heparin (Sigma H3400) in distilled water. The heparininsed blood was diluted using an equal volume of sterile Dulbeccos phosphate buffered saline (PBS: Invitrogen 14190) before decanting into 50 ml Leucosep tubes (Sigma A0561). The Leucosep tubes were centrifuged at 400 g for 30 min at room temperature and the buffycoat at the Ficoll:Plamsa interface collected into clean centrifuge tubes and the volum made up to 50 ml using PBS and centrifuging at 200 g for 10 min at room temperature. The supernatent was discarded and the pellet resuspended in assay media (Dulbeccos Modified Essential Medium (DMEM: Invitrogen 11971025) containing 5% Foetal Bovine Serum, 100 U/mIpenicilin/100 μg/ml streptomycin (Sigma P4458) at 2×10^6 lymphocytes per ml for IFNγ experiments and at 1×10^6 lymphocytes per ml for the pYSTAT5 experiments.\nhrIL2/haCD3 Stimulated pYSTAT5 in PBMC Lymphocytes\n90 μl of PBMC cell suspension was added to each well of a 96 well plate (Corning-Costar 3598) along with 10 μl of test compound dilution giving a final assay concentration range of 0.03 nM to 1 μM in half log increments. […] Plates were read the next day on a FACS Canto (Becton Dickinson). […]"}, "[3]": {"tested_on": "pYSTAT5 in PBMC lymphocytes", "assay": "Duration of action (DoA) after washout, pYSTAT5 in PBMC lymphocytes", "format": "cell-based, human", "conditions": "incubated at approximate IC80 for 1 h, then washed", "experimental": "90 μl of PBMC cell suspension was added to each well of a 96 well plate (Corning-Costar 3598) along with 10 μl of test compound dilution giving a final assay concentration range of 0.03 nM to 1 μM in half log increments. The plates were incuated at 37° C., in […] for 1 h before 10 μl rhIL2 (3 μg/ml final assay concentration) was added to appropriate wells and the plates incubated at the stated conditions for a further 15 min. 25 μl of 20% formaldehyde (Tousimis) was added to all wells and the plates left at room temperature for 10 min prior to centrifugation at 400 g for 4 min at room temperature. 200 μl PBS was added to each well and centrifugation repeated as just described. The supernatent was removed and 50 μl of a 1:50 dilution of Mouse anti-human CD3 (BD Biosciences 555329) in 0.1% BSA (Sigma A7906)/PBS added to each well (excluding control wells) and the plates incubated at room temperature in the dark for 30 min. […] Plates were read the next day on a FACS Canto (Becton Dickinson). […]\nFor determination of compound duration of action (DoA) cells were incubated with compound at an approximate IC80 concentration for 1 h before being washed by cenrifugation and resuspension in assay media without compound. […] DoA was calculated as the time taken for the inhibition to reverse by 50% (T50%)"}, "JAK1/3": {"tested_on": "JAK1/3", "assay": "JAK1/3 whole cell reporter gene assay (IL-4 stimulated STAT6-beta-lactamase reporter)", "format": "cell-based", "conditions": "Cellsensor STAT6-bla-RA-1 cell line, CD40 ligand and IL-4 stimulated", "procedure": "JAK1/3 Whole Cell Reporter Gene Assay\n4 mM stock solutions of test compounds are prepared and serially diluted in 100% DMSO. A standard curve using PF-00956980 at a top concentration of 10 mM is also prepared. High percentage effect (HPE) is defined by 10 mM PF-00956980 and 0% effect (ZPE) is defined by 100% DMSO. Plates containing 1 μl of serially diluted compound, standard and HPE/ZPE are diluted by addition of 39 μl assay media (Optimem with 100 uM NEAA, 10 uM sodium pyruvate and 100 U penicillin/100 ug streptomycin (Invitrogen)) using a Multidrop Combi. This dilutes test compounds to a top concentration of 100 μM. Final top assay concentration is 10 μM as the assay dilution factor is ten. Final DMSO concentration is 0.25%.\nCD40 (Invitrogen) is prepared at 0.1 mg/ml in PBS minus Ca^2+, minus Mg^2+. The concentration of CD40 required for activation is predetermined by CD40 titration with the cell line. […]\nAssays are performed in Greiner 384 well black polypropylene clear bottomed plates. The Invitrogen Cellsensor STATE-bla-RA-1 cell line is thawed, counted and resuspended at 1.88×10^6 cells/ml. […] Beta lactamase fluorescence signal is read at 460 nm (blue) and 530 nm (green) and a ratio calculated using an Envision. Test compound data are expressed as percentage inhibition defined by HPE and ZPE values for each plate. […]"}}}
{"smiles": "CCc1cc(O)c(F)cc1-c1ccc2c(-c3nc4c([nH]3)CCN(C(=O)c3cnc(N5CCCCC5)cn3)C4)n[nH]c2c1", "note": "[Example 4, {2-[6-(2-Ethyl-5-fluoro-4-hydroxy-phenyl)-1H-indazol-3-yl]-1,4,6,7-tetrahydro-imidazo[4,5-c]pyridin-5-yl}-(5-piperidin-1-yl-pyrazin-2-yl)-methanone]", "values": [{"measurement": "IC50", "setting": "JAK3 enzyme", "value": 0.5, "unit": "nM"}, {"measurement": "IC50", "setting": "JAK2", "value": 176, "unit": "nM"}, {"measurement": "IC50", "setting": "[1]", "value": 70, "unit": "nM"}, {"measurement": "IC50", "setting": "[2]", "value": 45, "unit": "nM"}, {"measurement": "DoA (time taken for the inhibition to reverse by 50%, T50%)", "setting": "[3]", "value": "> 8.8", "unit": "h"}, {"measurement": "IC50", "setting": "JAK1/3", "value": 140, "unit": "nM"}]}
